Columns and labels:
Test in all cases: Photodynamic inactivation of bacterial cell suspensions (CFU count after 532 nm laser irradiation)
Assay type in all cases: cell-based
[1] = test system: Escherichia coli DSM 8698; conditions: in presence of blood serum or plasma in the treatment suspensions, 10 μM, 100 μM, 1 mM, 30 min dark incubation, about 100 J/cm^2
Procedure: (§1) The organisms used in our studies were three members of the microflora of wounds: Staphylococcus aureus DSM1104 (A TCC 25923), Gram-positive; Escherichia coli DSM 8698, Gram-negative; Pseudomonas aeruginosa DSM 1117 (ATCC 27853), Gram-negative. All strains were grown aerobically overnight at 37° C. in Tryptic Soy Broth (Merck KGaA Darmstadt, Germany). Cells were harvested by centrifugation and resuspended in sterile phosphate-buffered saline (PBS) or sterile PBS supplemented with 10% sterile horse blood serum (Oxoid), 10% human plasma or 10% human blood (both freshly obtained from donors), respectively. The final OD (Optical Density) at 600 nm, 1 cm in all cases was 0.03.
(§2) Aliquots (190 μl) of the bacterial suspensions were placed into sterile black 96 well plates with clear bottom (Costar® 3603, Corning Inc., USA). 10 μl of three different Safranin O stock solutions were added to obtain the final photosensitizer concentrations of 10 μM, 100 μM and 1 mM, respectively. The plates were incubated for 30 minutes in the dark at room temperature.
(§3) After incubation the samples were exposed to light from a laser Ceralas G2 (biolitec AG, Germany), 532 nm, power set to 0.5 W, irradiation time of […] via a light fiber from the bottom of the plate. The fluence rate for these settings was about 1.2 W/cm^2 (measured with Optometer P-9710, Gigahertz-Optik GmbH, Puchheim, Germany). With the irradiation time, the resulting energy fluence was about 100 J/cm^2.
(§4) Control wells contained no Safranin O and were not exposed to laser light. The control samples for dark toxicity were only exposed to Safranin O (end concentration of 1 mM) without any illumination.
(§5) After illumination the samples were removed from the wells of the plate, diluted with Tryptic Soy Broth and plated by using spiral plater Eddy Jet (iul Instruments, Barcelona, Spain) on Tryptic Soy agar plates. The numbers of colony-forming units (CFU/ml) were enumerated after adequate incubation by using colony counter Countermat Flash (iul Instruments, Barcelona, Spain).

[2] = test system: Staphylococcus aureus DSM1104 (ATCC 25923); conditions: cell suspensions in PBS and in PBS+10% horse blood serum, PBS+10% human plasma, 10 μM, 100 μM, 1 mM, 30 min dark incubation, about 100 J/cm^2
Procedure: as §1, §2, §3, §4, §5

[3] = test system: Pseudomonas aeruginosa DSM 1117 (ATCC 27853); conditions: in presence of blood serum or plasma in the treatment suspensions, 10 μM, 100 μM, 1 mM, 30 min dark incubation, about 100 J/cm^2
Procedure: as §1, §2, §3, §4, §5

With `Cc1cc2nc3cc(C)c(N)cc3[n+](-c3ccccc3)c2cc1N.[Cl-]` [Safranin O] as the molecule, how does the “killing of cell suspensions by PDT treatment” value [1] read?
The value was “sufficient killing”.

What about the “killing effect by PDT treatment” value [2] of the same molecule?
The value was “very good killing effect”.

What about the “killing of cell suspensions by PDT treatment” value [3] of the same molecule?
The value was “sufficient killing”.
